Drawing on BindingDB's records for doi:10.1002/(SICI)1098-2396(200002)35:2<79::AID-SYN1>3.0.CO;2-X (Institut De Recherches Servier, 2000), this text covers Ki for 5 compounds.

The target in experiment [1] is T1, Alpha-2A adrenergic receptor (Homo sapiens, UniProt P08913).
T1 sequence (P08913 whole entry): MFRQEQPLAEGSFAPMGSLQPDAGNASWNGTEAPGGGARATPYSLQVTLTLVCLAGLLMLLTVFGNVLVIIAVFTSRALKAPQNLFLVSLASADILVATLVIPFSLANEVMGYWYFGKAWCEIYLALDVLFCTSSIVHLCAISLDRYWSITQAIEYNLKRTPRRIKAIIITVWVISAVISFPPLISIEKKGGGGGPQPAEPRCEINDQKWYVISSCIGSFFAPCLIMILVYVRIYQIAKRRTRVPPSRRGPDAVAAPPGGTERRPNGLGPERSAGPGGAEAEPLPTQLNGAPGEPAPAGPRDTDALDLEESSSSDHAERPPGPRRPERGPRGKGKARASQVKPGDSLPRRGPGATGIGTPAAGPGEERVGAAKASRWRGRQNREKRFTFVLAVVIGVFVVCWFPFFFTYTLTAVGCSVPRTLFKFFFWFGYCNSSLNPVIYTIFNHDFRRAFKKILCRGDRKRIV

Experiment [2] concerns the target T2, 5-hydroxytryptamine receptor 3A (Mus musculus, UniProt P23979).
T2 sequence (P23979 whole entry): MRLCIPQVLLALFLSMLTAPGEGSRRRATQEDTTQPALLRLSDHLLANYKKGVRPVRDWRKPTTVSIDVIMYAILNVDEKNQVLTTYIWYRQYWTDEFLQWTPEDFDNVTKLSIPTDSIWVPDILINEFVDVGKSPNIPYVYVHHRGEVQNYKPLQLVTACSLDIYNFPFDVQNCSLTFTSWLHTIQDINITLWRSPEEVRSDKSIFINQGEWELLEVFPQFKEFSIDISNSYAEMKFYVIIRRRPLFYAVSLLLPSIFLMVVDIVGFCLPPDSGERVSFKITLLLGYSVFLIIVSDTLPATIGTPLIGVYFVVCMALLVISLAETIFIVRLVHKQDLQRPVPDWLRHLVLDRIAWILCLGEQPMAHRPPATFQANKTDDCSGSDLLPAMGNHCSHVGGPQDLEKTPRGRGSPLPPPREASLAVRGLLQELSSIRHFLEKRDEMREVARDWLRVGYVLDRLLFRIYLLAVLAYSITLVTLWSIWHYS

Experiment [3] concerns the target T3, 5-hydroxytryptamine receptor 2C (Sus scrofa, UniProt K7GSR7).
T3 sequence (K7GSR7 whole entry): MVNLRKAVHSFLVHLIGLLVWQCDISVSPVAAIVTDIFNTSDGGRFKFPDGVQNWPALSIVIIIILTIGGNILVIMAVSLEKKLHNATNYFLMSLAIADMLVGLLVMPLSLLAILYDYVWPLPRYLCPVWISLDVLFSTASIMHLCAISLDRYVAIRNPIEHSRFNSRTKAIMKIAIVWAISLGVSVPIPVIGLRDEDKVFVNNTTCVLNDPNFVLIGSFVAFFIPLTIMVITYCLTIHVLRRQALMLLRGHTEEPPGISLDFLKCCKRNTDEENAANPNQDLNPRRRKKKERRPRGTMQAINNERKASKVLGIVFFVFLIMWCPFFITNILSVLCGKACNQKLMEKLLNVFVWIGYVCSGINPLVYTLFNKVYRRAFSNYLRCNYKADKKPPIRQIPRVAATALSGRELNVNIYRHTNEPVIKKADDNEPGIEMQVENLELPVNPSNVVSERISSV

The target of experiment [4] is 5-hydroxytryptamine receptor 1B (Cavia porcellus, UniProt O08892).
Chain of 5-hydroxytryptamine receptor 1B (O08892 whole entry): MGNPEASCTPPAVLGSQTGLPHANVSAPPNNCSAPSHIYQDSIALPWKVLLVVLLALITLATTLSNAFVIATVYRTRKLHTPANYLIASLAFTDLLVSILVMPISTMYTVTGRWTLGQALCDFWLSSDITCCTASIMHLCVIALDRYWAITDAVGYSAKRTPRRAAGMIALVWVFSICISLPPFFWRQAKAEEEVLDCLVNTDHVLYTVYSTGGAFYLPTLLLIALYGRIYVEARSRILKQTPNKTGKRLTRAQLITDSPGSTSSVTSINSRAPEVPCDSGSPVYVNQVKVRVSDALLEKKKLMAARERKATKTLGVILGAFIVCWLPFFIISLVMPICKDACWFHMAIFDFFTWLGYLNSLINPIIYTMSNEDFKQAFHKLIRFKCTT
In experiment [5] the target is 5-hydroxytryptamine receptor 1D (Homo sapiens, UniProt P28221).
Chain of 5-hydroxytryptamine receptor 1D (P28221 whole entry): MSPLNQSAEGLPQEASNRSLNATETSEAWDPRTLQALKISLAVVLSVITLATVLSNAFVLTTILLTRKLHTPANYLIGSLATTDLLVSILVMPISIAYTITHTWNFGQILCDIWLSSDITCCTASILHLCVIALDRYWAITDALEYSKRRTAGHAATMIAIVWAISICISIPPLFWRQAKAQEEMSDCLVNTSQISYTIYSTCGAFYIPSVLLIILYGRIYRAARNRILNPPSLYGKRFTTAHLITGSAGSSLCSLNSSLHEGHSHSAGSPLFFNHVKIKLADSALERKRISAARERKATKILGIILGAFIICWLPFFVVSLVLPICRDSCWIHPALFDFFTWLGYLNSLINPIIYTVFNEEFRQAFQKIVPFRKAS
The target of experiment [6] is D(2) dopamine receptor (Homo sapiens, UniProt P14416).
Chain of D(2) dopamine receptor (P14416 whole entry): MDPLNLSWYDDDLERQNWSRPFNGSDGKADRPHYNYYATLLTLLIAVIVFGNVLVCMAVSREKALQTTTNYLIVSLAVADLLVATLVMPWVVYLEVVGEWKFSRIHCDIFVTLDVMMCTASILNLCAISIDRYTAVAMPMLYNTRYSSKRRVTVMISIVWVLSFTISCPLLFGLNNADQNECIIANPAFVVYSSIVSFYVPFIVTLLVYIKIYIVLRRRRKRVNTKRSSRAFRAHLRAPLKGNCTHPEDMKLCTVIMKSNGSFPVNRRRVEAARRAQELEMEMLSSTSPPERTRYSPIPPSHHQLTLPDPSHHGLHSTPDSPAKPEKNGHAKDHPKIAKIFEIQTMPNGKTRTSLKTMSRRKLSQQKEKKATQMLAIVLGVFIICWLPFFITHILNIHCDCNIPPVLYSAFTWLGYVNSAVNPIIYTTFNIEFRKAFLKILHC

“And” between values parts separate entries of the source, which are not always exact repeats. Identical values can stand only once.

For orientation: Ki means a measure of affinity in units of concentration, obtained from inhibition or displacement. The low end stands for a stronger hold on the target, the high end for a looser hold on the target. Turning to `COC1(C2=NCCN2)COc2ccccc2O1` (configuration not stated) [RX821002], in experiment [1], the Ki stood at 1 nM.
Consider `Cc1nccn1CC1CCc2c(c3ccccc3n2C)C1=O` (configuration not stated) [NSC_68647], for which the Ki in experiment [2] was 3.98 nM.
Regarding `NCCc1c[nH]c2ccccc12` [1H-indole-3-ethanamine], in experiment [3], the Ki was found to be 79.4 nM. In other words, the double-digit nanomolar range.
The compound `NCCc1c[nH]c2ccc(O)cc12` [[3H]-5-HT] came in with a Ki in experiment [4] of 2.51 nM.
In the case of `COC(=O)[C@@H]1[C@H]2C[C@H]3c4[nH]c5ccccc5c4CCN3C[C@@H]2CC[C@@H]1O` [yohimbic acid methyl ester], the Ki was 50.1 nM in experiment [4]; 19.9 nM and 25.1 nM in experiment [5]; 398 nM in experiment [6].
